Where two headings read alike, the source gives them in different places.
Legend:
X-ray diffraction = format: physicochemical; settings: before storage
Experimental: The X-ray diffractions of the above-obtained samples were measured by using a JDX-8030 X-ray diffraction apparatus (JEOL LTD.) through a Ni-filter with a CuKα x-ray (40KV, 20mA) at a scanning speed of 1.2° /min. (Fig. 1).

[1] = acidic aqueous solution
[2] = format: physicochemical; settings: pH 4
Experimental: Solubility of the samples was determined by using a […] dissolution apparatus (Toyama Sangyo Co., LTD.) and 200 ml of buffer (adjusted at pH 4.0, prepared by mixing JP dissolution test solution 1 and JP dissolution test solution II) at 37 ± 0.5°C with stirring at 100 rpm paddle rotation. 250 mg (potency equivalent) of sample was added to the test solution, and the solubility of the sample was determined by high performance liquid chromatography under time course investigation. […] However, the solubility decreased immediately after about 5 minutes because of crystallization of the antibiotic. […] After storage for one month at 60°C , the solubility of the granules of Reference 3 was no more than 240μg/ml after five minutes, and became the same as that of the crystalline powders after 60 minutes.

4˝-O-(Para-methoxyphenylacetyl)tylosin
X-ray diffraction peaks (X-ray diffraction): High X-ray diffraction peaks were observed
solubility ([1]; pH 2): 1200 µg/mL
solubility ([1]; pH 4): 10 µg/mL
solubility ([1]; pH 5): 2 µg/mL
solubility ([1]; pH 6.8): 0.5 µg/mL
solubility [2]: no more than about a few micrograms per ml
